From patent publication US9593305B2, “Differentiation of pluripotent stem cells” (Janssen Biotech, Inc., priority 2008, dated 2017)
Where “and” joins values, the source holds several entries; their conditions need not be identical. Equal entries are not always repeated.

Tested on: H1 human embryonic stem cells
Assay: Compounds and growth factors with low dose activin A (Example 9, Table 9)
Assay type: cell-based
Description: Clusters of H1 human embryonic stem cells were grown on reduced growth factor […]™ (Invitrogen; Cat #356231)-coated tissue culture plastic. Cells were passaged using collagenase (Invitrogen; Cat #17104-019) treatment and gentle scraping, washed to remove residual enzyme, and plated with even dispersal at a ratio of 1:1 (surface area) on reduced growth factor […]™-coated 96-well black plates (Packard ViewPlates; PerkinElmer; Cat #6005182) using volumes of 100 μl/well. Cells were allowed to attach as clusters and then recover log phase growth over a 1 to 3 day period, feeding daily with MEF conditioned medium supplemented with 8 ng/ml bFGF (R&D Systems; Cat #233-FB). Plates were maintained at 37° C., 5% CO2 in a humidified box throughout the duration of assay.
Stocks of growth factors purchased from R&D Systems were EGF (Cat #236-EG), FGF4 (Cat #235-F4), PDGF-A (Cat #221-AA), PDGF-D (Cat #1159-SB), PDGF-A/B (Cat #222-AB), VEGF (Cat #293-VE), and GDF-8 (Cat #788-08). Activin A was purchased from PeproTech (Cat #). Muscimol was purchased from Tocris (Cat #0289). All growth factors were solubilized in PBS with 0.1% BSA (Sigma; Cat #A7888) and stored frozen at −80° C. Muscimol was solubilized in 100% DMSO (Sigma; Cat #D2650) and stored frozen at −80° C. The compounds were available as 5 mM stocks in 96-well plate format, solubilized in 100% DMSO and stored at −80° C. The compounds were further diluted to an intermediate concentration of 0.2 mM in 50 mM HEPES (Invitrogen; Cat #15630-080), 20% DMSO and stored at 4° C. All growth factors and inhibitors were prepared in a deep well, 96-well polypropylene plate, diluted to 5× intermediate stocks in DMEM:F12 base medium at the beginning of assay and stored at 4° C.
A secondary screening assay was conducted, testing in triplicate and feeding on alternate days over the four-day assay timeframe. Assays were initiated by aspirating culture medium from each well followed by three washes in PBS to remove residual growth factors and serum. Test volumes of 80 μl per well were added back containing DMEM:F12 base medium (Invitrogen; Cat #11330-032) supplemented with 0.625% FCS (HyClone; Cat #SH30070.03), 25 ng/ml Wnt3a (R&D Systems), 12.5 ng/ml activin A, and 3.125 μM compound plus 20 μl 5× stock of growth factor or small molecule to yield a final concentration of 0.5% FCS, 20 ng/ml Wnt3a, 10 ng/ml activin A, and 2.5 μM compound. All remaining growth factors were tested at a final assay concentration of 50 ng/ml (EGF, FGF4, PDGF-A, PDGF-A/B, VEGF), with the exception of GDF-8 used at 25 ng/ml. Final assay concentration of muscimol was 20 μM. Positive control wells (100 μl/well) contained the same base medium supplemented with 0.5% FCS, 20 ng/ml Wnt3a and 10 ng/ml (low dose) or 100 ng/ml (high dose) activin A. Negative control wells (100 μl/well) contained the same base medium with 0.5% FCS and 20 ng/ml Wnt3a, omitting activin A.
Positive control wells (100 μl/well) contained the same base medium supplemented with 2% FCS and 10 ng/ml or 100 ng/ml activin A, omitting Wnt3a. Negative control wells (100 μl/well) contained the same base medium with 2% FCS, omitting both activin A and Wnt3a.
At the conclusion of four-days of culture, assay plates were washed twice with PBS, fixed with 4% paraformaldehyde (Alexis Biochemical; Cat #ALX-350-011) at room temperature for 20 minutes, then washed three times with PBS and permeabilized with 0.5% Triton X-100 (Sigma; Cat #T8760-2) for 20 minutes at room temperature. Cells were washed again three times with PBS and blocked with 4% chicken serum (Invitrogen; Cat #16110082) in PBS for 30 minutes at room temperature. Primary antibody (goat anti-human SOX17; R&D Systems; cat #AF1924) was diluted 1:100 in 4% chicken serum and added to each well for one hour at room temperature. […]

[1] = 10 ng/ml AA + compound + EGF + FGF4 + PDGF-A + Muscimol + Wnt3a
[2] = 10 ng/ml AA + compound + EGF + FGF4 + PDGF-A + VEGF + PDGF-D + Muscimol + GDF8 + Wnt3a
[3] = 10 ng/ml AA + compound + EGF + FGF4 + PDGF-AB + VEGF + Wnt3a
[4] = 10 ng/ml AA + compound + EGF + FGF4 + PDGF-AB + Wnt3a
[5] = 10 ng/ml AA + compound + EGF + FGF4 + Wnt3a
[6] = 10 ng/ml AA + compound + EGF + Wnt3a
[7] = 10 ng/ml AA + compound + FGF4 + Wnt3a
[8] = 10 ng/ml AA alone, no compound, no growth factors
[9] = 100 ng/ml AA alone, no compound, no growth factors

Compound | Cell Number, % of positive control [1] | Cell Number, Average Total Cell Number [1] | Sox17 Expression, % of positive control [1] | Sox17 Expression, Average Total Intensity [1] | Cell Number, % of positive control [2] | Cell Number, Average Total Cell Number [2] | Sox17 Expression, % of positive control [2] | Sox17 Expression, Average Total Intensity [2] | Cell Number, % of positive control [3] | Cell Number, Average Total Cell Number [3] | Sox17 Expression, % of positive control [3] | Sox17 Expression, Average Total Intensity [3] | Cell Number, % of positive control [4] | Cell Number, Average Total Cell Number [4] | Sox17 Expression, % of positive control [4] | Sox17 Expression, Average Total Intensity [4] | Cell Number, % of positive control [5] | Cell Number, Average Total Cell Number [5] | Sox17 Expression, % of positive control [5] | Sox17 Expression, Average Total Intensity [5] | other results
O=C1NCCCc2cncc(c2)-c2ncnc(n2)Nc2cccc(c2)CN2CCC1CC2 [Compound 22, 1,8,10,12,16,22,30-Heptaazapentacyclo[22.2.2.1-3,7˜0.1˜9,13˜1-14,18˜]hentriaconta-3(31), 4,6,9(30), 10,12,14(29), 15,17-nonaen-23-one] | 132.10 % of positive control | 8100 | 38.65 % of positive control | 4.42E+07 | 139.53 % of positive control | 8556 | 76.82 % of positive control | 8.78E+07 | 124.87 % of positive control | 7657 | 41.09 % of positive control | 4.70E+07 | 130.06 % of positive control | 7975 | 30.03 % of positive control | 3.43E+07 | 159.83 % of positive control | 9800 | 40.13 % of positive control | 4.59E+07 | Cell Number, % of positive control [6]: 81.55 % of positive control; Cell Number, Average Total Cell Number [6]: 5001; Sox17 Expression, % of positive control [6]: 24.45 % of positive control; Sox17 Expression, Average Total Intensity [6]: 2.80E+07; Cell Number, % of positive control [7]: 105.84 % of positive control; Cell Number, Average Total Cell Number [7]: 6490; Sox17 Expression, % of positive control [7]: 37.43 % of positive control; Sox17 Expression, Average Total Intensity [7]: 4.28E+07; Cell Number, % of positive control (10 ng/ml AA + compound + Wnt3a): 74.09 % of positive control; Cell Number, Average Total Cell Number (10 ng/ml AA + compound + Wnt3a): 4543; Sox17 Expression, % of positive control (10 ng/ml AA + compound + Wnt3a): 26.65 % of positive control; Sox17 Expression, Average Total Intensity (10 ng/ml AA + compound + Wnt3a): 3.05E+07
CCN1CC(=O)NCCCc2cncc(c2)-c2ncnc(n2)Nc2cc(Cl)cc(c2)C1 [Compound 35, 10-Chloro-14-ethyl-3,5,7,14,17,23,27-heptaazatetracyclo[19.3.1.1˜2,6˜0.1˜8,12]Theptacosa-1(25), 2(27), 3,5,8(26), 9,11,21,23-nonaen-16-one] | 62.29 % of positive control | 3820 | −1.46 % of positive control | −1.67E+06 | 41.14 % of positive control | 2522 | −4.25 % of positive control | −4.86E+06 | 56.74 % of positive control | 3479 | −3.46 % of positive control | −3.96E+06 | 53.21 % of positive control | 3263 | −3.99 % of positive control | −4.56E+06 | 44.10 % of positive control | 2704 | −3.65 % of positive control | −4.17E+06 | Cell Number, % of positive control [6]: 2.53 % of positive control; Cell Number, Average Total Cell Number [6]: 155; Sox17 Expression, % of positive control [6]: −6.84 % of positive control; Sox17 Expression, Average Total Intensity [6]: −7.82E+06; Cell Number, % of positive control [7]: 4.64 % of positive control; Cell Number, Average Total Cell Number [7]: 284; Sox17 Expression, % of positive control [7]: −6.59 % of positive control; Sox17 Expression, Average Total Intensity [7]: −7.54E+06; Cell Number, % of positive control (10 ng/ml AA + compound + Wnt3a): 2.83 % of positive control; Cell Number, Average Total Cell Number (10 ng/ml AA + compound + Wnt3a): 173; Sox17 Expression, % of positive control (10 ng/ml AA + compound + Wnt3a): −6.66 % of positive control; Sox17 Expression, Average Total Intensity (10 ng/ml AA + compound + Wnt3a): −7.61E+06
Activin A: recombinant human activin A (PeproTech), TGF-beta family member | – | – | – | – | – | – | – | – | – | – | – | – | – | – | – | – | – | – | – | – | Cell Number, % of positive control [8]: 67.67 % of positive control and 100.00 % of positive control; Cell Number, Average Total Cell Number [8]: 5177 and 6132; Cell Number, % of positive control [9]: 100.00 % of positive control and 157.51 % of positive control; Cell Number, Average Total Cell Number [9]: 7650 and 9658; Sox17 Expression, % of positive control [9]: 100.00 % of positive control; Sox17 Expression, Average Total Intensity [9]: 1.11E+08 and 1.14E+08
O=C1CCN2CCN(CC2)Cc2cc(Cl)cc(c2)Nc2ncnc(n2)-c2cncc(c2)CCCN1 [Compound 34, 5-Chloro-1,8,10,12,16,22,26,32-octaazapentacyclo[24.2.2.1˜3.7˜0.1˜9,13˜0.1˜14.18˜]tritriaconta-3(33), 4,6,9(32), 10,12,14(31), 15,17-nonaen-23-one] | 233.85 % of positive control | 17890 | 258.30 % of positive control | 2.88E+08 | 240.02 % of positive control | 18362 | 309.74 % of positive control | 3.45E+08 | 203.58 % of positive control | 15574 | 232.70 % of positive control | 2.59E+08 | 233.65 % of positive control | 17875 | 241.07 % of positive control | 2.68E+08 | 185.07 % of positive control | 14158 | 215.35 % of positive control | 2.40E+08 | Cell Number, % of positive control [6]: 189.89 % of positive control; Cell Number, Average Total Cell Number [6]: 14527; Sox17 Expression, % of positive control [6]: 204.84 % of positive control; Sox17 Expression, Average Total Intensity [6]: 2.28E+08; Cell Number, % of positive control [7]: 174.15 % of positive control; Cell Number, Average Total Cell Number [7]: 13323; Sox17 Expression, % of positive control [7]: 196.86 % of positive control; Sox17 Expression, Average Total Intensity [7]: 2.19E+08; Cell Number, % of positive control (10 ng/ml AA + compound + Wnt3a): 46.91 % of positive control; Cell Number, Average Total Cell Number (10 ng/ml AA + compound + Wnt3a): 3589; Sox17 Expression, % of positive control (10 ng/ml AA + compound + Wnt3a): 63.08 % of positive control; Sox17 Expression, Average Total Intensity (10 ng/ml AA + compound + Wnt3a): 7.02E+07
